Measurements published in PMC8480782, “Efficient Dimerization Disruption of Leishmania infantum Trypanothione Reductase by Triazole-phenyl-thiazoles” (Journal of Medicinal Chemistry, 2021).
Values joined by “and” are separate entries in the source; they are usually repeats but may differ in a detail not shown here. Equal entries are not always repeated. “Also recorded” adds a separate entry of the source. Where two headings read alike, the source gives them in different places.

Legend:
HepG2 cells = assay: Cellular toxicity, crystal violet assay; format: cell-based; conditions: Homo sapiens, read-out: EC50 HepG2
Method in brief: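 HepG2 cells in DMEM with 10% FCS were exposed to compounds at 10^5 cells/mL for 24 h at 37 °C and 5% CO2. Remaining cells were stained with crystal violet, solubilized in 1% SDS and read at 570 nm. EC50 was obtained by nonlinear regression from triplicates in at least three independent experiments.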

[1] = test system: L. infantum axenic amastigotes; assay: Leishmanicidal activity on axenic amastigotes (PI exclusion, flow cytometry); format: cell-based, Leishmania infantum; conditions: for SIa (ratio of EC50 against human cells to EC50 against amastigotes): HepG2 / axenic amastigotes; for EC50: Leishmania infantum, read-out: EC50 amastigotes
Method in brief: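 Leishmania infantum axenic amastigotes (MCAN/ES/89/IPZ229/1/89) were cultured at 37 °C in M199 medium, pH 5.4, with 10% heat-inactivated FCS, organic acids, MES, hemin and gentamicine. After compound exposure, parasites were gated by FSC/SSC and live versus dead cells were distinguished by propidium iodide exclusion using flow cytometry. EC50 values came from nonlinear regression in GraFit 6, with triplicates in at least three independent experiments.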

[2] = test system: L. infantum promastigotes; assay: Leishmanicidal activity on promastigotes (PI exclusion, flow cytometry); format: cell-based, Leishmania infantum; conditions: for SIp (ratio of EC50 against human cells to EC50 against promastigotes): HepG2 / promastigotes; for EC50: Leishmania infantum
Method in brief: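 Log-phase L. infantum promastigotes (MCAN/ES/89/IPZ229/1/89) at 2 × 10^6 parasites/mL in RPMI-1640 with 10% FCS, pH 7.2, were drug-treated for 24 h at 26 °C. Viability was scored by flow cytometric propidium iodide exclusion, and EC50 was derived by nonlinear regression.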

LiTryR = molecular target: T1, LiTryR (Leishmania infantum, UniProt A4HSF7); assay: Time-dependent inhibition kinetics of LiTryR (modified DTNB-coupled assay); format: biochemical; conditions: for mechanism of LiTryR inhibition: reaction progress curves / kinetic analysis; for α* (overall two-step process): fit to eq 4; for α (initial EI complex): fit to eq 3
T1 construct: HIS (N); made in house; host or cells: E. coli BL21 (DE3) Rossetta
T1 sequence (A4HSF7 1-491): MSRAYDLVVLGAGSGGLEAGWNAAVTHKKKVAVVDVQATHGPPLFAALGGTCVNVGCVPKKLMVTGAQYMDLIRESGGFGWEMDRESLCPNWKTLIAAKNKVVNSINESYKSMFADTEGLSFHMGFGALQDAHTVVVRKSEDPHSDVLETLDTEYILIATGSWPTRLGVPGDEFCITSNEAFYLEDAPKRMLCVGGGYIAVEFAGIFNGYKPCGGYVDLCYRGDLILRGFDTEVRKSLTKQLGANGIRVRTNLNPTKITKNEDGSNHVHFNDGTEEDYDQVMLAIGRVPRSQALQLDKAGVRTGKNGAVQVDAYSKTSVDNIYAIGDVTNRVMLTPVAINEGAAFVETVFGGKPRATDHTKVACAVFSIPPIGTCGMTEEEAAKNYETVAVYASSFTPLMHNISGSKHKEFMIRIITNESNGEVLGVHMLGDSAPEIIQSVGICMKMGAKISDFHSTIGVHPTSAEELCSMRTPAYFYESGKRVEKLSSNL
Method: The inhibitory constants Ki and Ki* for 19a were calculated following a slightly modified version of the standard DTNB-coupled assay.[52] TS2 was serially diluted (sixfold dilution from 1666 to 52 μM) in a buffer containing 40 mM HEPES (pH 7.5) and 1 mM EDTA. The different TS2 solutions were dispensed (15 μL) in a 96-well microplate. 19a was serially diluted in DMSO (sixfold dilution from 1875 to 445 μM). […] These mixtures (180 μL) were subsequently added to the appropriate wells previously filled with different TS2 solutions. The assay was initiated by addition of 55 μL of buffer containing 40 mM HEPES (pH 7.5), 1 mM EDTA, 272.73 μM NADP^+, 0.01% glycerol, and 3.5 nM recombinant LiTryR using an automated dispensing system (PerkinElmer, Waltham, MA). The order of addition was essential to avoid enzyme preincubation with the inhibitor or the substrates. […] TryR oxidoreductase activity was monitored at 26 °C by an increase in absorbance at 412 nm in an EnSpire Multimode Plate Reader (PerkinElmer, Waltham, MA). Coupling an automated dispenser module to the spectrophotometer enabled real-time detection of the enzymatic reaction, which was crucial for high-quality nonlinear fits of the experimental data and, especially, to estimate the initial velocity of the progress curves in the presence of 19a. To guarantee linearity of the enzyme reaction in the absence of an inhibitor, the analysis was performed with data obtained during the first 20 000 s to avoid TS2 depletion. […] All of the assays were conducted in three independent experiments.
kobs values were estimated for every 19a concentration at all TS2 concentrations by fitting the values of the TNB concentration produced during each enzymatic reaction to eq 1.[42b],[53] [drawing 2] 1 where vi and vs are the initial and the steady-state velocities, respectively, kobs is the apparent first-order rate constant for the conversion of vi into the steady-state velocity (vs), and d is a parameter that indicates the displacement of the curve on the vertical ordinate and takes into account any nonzero value of the measured signal at time zero caused by some of the reagents. The apparent inhibition constants (Ki^app and Ki*^app) for each TS2 concentration were determined by fitting the kobs values obtained at different 19a concentrations to eq 2 [drawing 3] 2 where Ki^app is the apparent value of the Ki for the initial encounter complex (EI) and Ki*^app is the apparent value of the overall inhibition constant Ki* to form a higher-affinity complex (E*I). k6 is the first-order rate constant that defines the reverse isomerization step that returns E*I to EI.[42a],[53]
The Ki value for the formation of the EI complex was determined by fitting the Ki^app values obtained at different TS2 concentrations to eq 3. In addition, this graph was used to assess the inhibition modality of 19a during the first equilibrium of its two-step binding mechanism. […] In addition, this graph was used to assess the overall inhibition modality of 19a during its two-step binding mechanism. As explained above, the value obtained for α defines the mode of inhibition.[42a] [drawing 5] 4
Figure S1. […]
Lineweaver–Burk plots of reciprocal initial velocities ( vi) versus reciprocals of four TS2

[3] = HepG2, 24 h, crystal violet method
[4] = axenic amastigotes, 24 h at 37 °C
[5] = 24 h at 26 °C, read-out: EC50 promastigotes
[6] = promastigotes or amastigotes (either form), read-out: EC50 against Leishmania promastigotes or amastigotes
[7] = fit of Ki*^app to eq 4, read-out: Ki* (overall two-step process)
[8] = two-step mechanism, fit of Ki^app to eq 3, read-out: Ki (initial EI complex)

Structure (SMILES)	EC50 (HepG2 cells; [3]) [µM]	SIa (ratio of EC50 against human cells to EC50 against amastigotes) [1]	EC50 [1, 4] [µM]	SIp (ratio of EC50 against human cells to EC50 against promastigotes) [2]	EC50 [2, 5] [µM]	mechanism of LiTryR inhibition (LiTryR)	also measured
NCCCCc1cn(-c2ccc(-c3nc(-c4cccc(-c5csc(-c6ccc(-n7cc(CCCCN)nn7)cc6OCCN6CCNC6=O)n5)c4)cs3)c(OCCN3CCNC3=O)c2)nn1.O=C(O)C(F)(F)F.O=C(O)C(F)(F)F [compound 22, 1,1′-((((1,3-Phenylenebis(thiazole-4,2-diyl))bis(5-(4-(4-ammoniobutyl)-1H-1,2,3-triazol-1-yl)-2,1-phenylene))bis(oxy))bis(ethane-2,1-diyl))bis(imidazolidin-2-one)bis(2,2,2-trifluoroacetate)]	30.5 ± 4.1	6.2	4.9 ± 0.2	8.0	3.8 ± 0.1	–	–
NCCCCc1cn(-c2ccc(-c3nc(-c4ccccc4)cs3)c(OCCN3CCNC3=O)c2)nn1.O=C(O)C(F)(F)F [12n]	16.4 ± 2.3	–	11.5 ± 0.3	–	5.4 ± 0.08	–	EC50 [2, 6]: < 10 µM
NCCCCc1cn(-c2ccc(-c3nc(CCc4ccc5c(c4)CCCN5)cs3)c(OCCN3CCNC3=O)c2)nn1.O=C(O)C(F)(F)F.O=C(O)C(F)(F)F [12q]	43.3 ± 1	ND/1.6	27 ± 2.8	–	–	single-step binding mechanism	α, reversible single-step mechanism of time-dependent inhibition (LiTryR; single-step mechanism (Scheme S4)): 0.3 ± 0.2; Ki (LiTryR; single-step mechanism (Scheme S4), read-out: Ki, reversible single-step mechanism of time-dependent inhibition): 13.6 ± 5.1 µM
NCCCCc1cn(-c2ccc(-c3nc(-c4ccc(Oc5ccccc5)cc4)c(-c4ccccc4)s3)c(OCCN3CCNC3=O)c2)nn1.O=C(O)C(F)(F)F [19c, 1-(2-(5-(4-(4-Ammoniobutyl)-1H-1,2,3-triazol-1-yl)-2-(4-([4-phenyloxyphenyl]-1-yl)-5-phenylthiazol-2-yl)phenoxy)ethyl)imidazolidin-2-one 2,2,2-Trifluoroacetate]	≥ 75	ND/≥3.3	22.6 ± 5.7	–	–	–	–
NCCNCc1nccn1-c1ccc(-c2nc(CCc3ccc(-c4ccccc4)cc3)cs2)c(OCCN2CCNC2=O)c1 [compound 3, reference compound]	14.2 ± 0.9	2.7 and 2.7/2.7	5.3 ± 0.2	2.7 and 2.7/2.7	5.3 ± 0.3	–	–
NCCCCc1cn(-c2ccc(-c3nc(CCc4ccc5c(c4)CCO5)cs3)c(OCCN3CCNC3=O)c2)nn1.O=C(O)C(F)(F)F [12r]	29.4 ± 0.7	1.3	22.3 ± 0.6	1.2	23.8 ± 0.5	slow-binding inhibitors	–
NCCCCc1cn(-c2ccc(-c3nc(CCc4ccc5oc6ccccc6c5c4)cs3)c(OCCN3CCNC3=O)c2)nn1.O=C(O)C(F)(F)F [12s]	–	ND/>1.1	–	–	–	slow-binding inhibitors	EC50 (HepG2 cells; HepG2, 24 h): > 75 µM; EC50 ([1]; 24 h): 68.8 ± 3.2 µM
NCCNCc1nccn1-c1ccc(-c2nc(CCc3ccc4ccccc4c3)cs2)c(OCCN2CCNC2=O)c1 [compound 2, reference compound]	27.1 ± 2.4	2.1/2.1	12.8 ± 1.3	2.1/2.1	12.8 ± 0.7	–	–
NCCCc1cn(-c2ccc(-c3nc(CCc4ccc(-c5ccccc5)cc4)cs3)c(OCCN3CCNC3=O)c2)nn1.O=C(O)C(F)(F)F [12i]	60.4 ± 3	11.6	5.2 ± 0.3	10.4	5.8 ± 0.7	–	–
NCCCCc1cn(-c2ccc(-c3nc(CCc4ccc5ccccc5c4)cs3)c(OCCN3CCNC3=O)c2)nn1.O=C(O)C(F)(F)F [12b, 1-(2-(5-(4-(4-Ammoniumbutyl)-1H-1,2,3-triazol-1-yl)-2-(4-(2-(naphthalen-2-yl)ethyl)thiazol-2-yl)phenoxy)ethyl)imidazolidin-2-one 2,2,2-Trifluoroacetate]	33.3 ± 2.7	2.2	15.3 ± 1.7	4.0	8.4 ± 0.3	slow-binding inhibitors; also recorded: two-step process of enzyme isomerization	EC50 [2, 6]: < 10 µM; Ki (LiTryR; [7]): 2.6 ± 0.6 µM; α* (overall two-step process) (LiTryR): 1.3 ± 0.6; Ki (LiTryR; [8]): 10 ± 2.7 µM; α (initial EI complex) (LiTryR; two-step mechanism): 2.0 ± 1.3
NCCCCc1cn(-c2ccc(-c3nc(-c4ccccc4)c(-c4ccccc4)s3)c(OCCN3CCNC3=O)c2)nn1.O=C(O)C(F)(F)F [19a, 1-(2-(5-(4-(4-Ammoniobutyl)-1H-1,2,3-triazol-1-yl)-2-(4,5-diphenylthiazol-2-yl)phenoxy)ethyl)imidazolidin-2-one 2,2,2-Trifluoroacetate]	26.5 ± 4.1	1.7	15.6 ± 3	2.5	10.7 ± 1.3	slow-binding inhibitors; also recorded: nonlinear noncompetitive hyperbolic inhibition mechanism	β, noncompetitive hyperbolic inhibition mechanism (LiTryR; DTNB-coupled assay, initial velocities, alpha value of 1): 0.5 ± 0.1; Ki (LiTryR; DTNB-coupled assay, initial velocities, alpha value of 1, read-out: Ki, noncompetitive hyperbolic inhibition mechanism): 12.7 ± 3.5 µM; Ki (LiTryR; [TS2] 3.1 μM, read-out: Ki*^app): 0.6 ± 0.1 µM; Ki (LiTryR; [TS2] 3.1 μM, read-out: Ki^app): 8.9 ± 3.1 µM; Ki (LiTryR; [TS2] 6.2 μM, read-out: Ki*^app): 0.5 ± 0.1 µM; Ki (LiTryR; [TS2] 6.2 μM, read-out: Ki^app): 7.2 ± 1.7 µM; Ki (LiTryR; [TS2] 12.5 μM, read-out: Ki*^app): 0.5 ± 0.2 µM; Ki (LiTryR; [TS2] 12.5 μM, read-out: Ki^app): 5.2 ± 2.6 µM; Ki (LiTryR; [TS2] 25 μM, read-out: Ki*^app): 0.8 ± 0.2 µM; Ki (LiTryR; [TS2] 25 μM, read-out: Ki^app): 8.3 ± 3 µM; Ki (LiTryR; [TS2] 50 μM, read-out: Ki*^app): 1.4 ± 0.3 µM; Ki (LiTryR; [TS2] 50 μM, read-out: Ki^app): 9.3 ± 3.2 µM; Ki (LiTryR; [TS2] 100 μM, read-out: Ki*^app): 1.3 ± 0.6 µM; Ki (LiTryR; [TS2] 100 μM, read-out: Ki^app): 5 ± 2.7 µM; Ki (LiTryR; [7]): 0.5 ± 0.1 µM; α* (overall two-step process) (LiTryR): 5.5 ± 2.9; k6, value selected as conservative upper value (LiTryR; fixed for fitting to eq 2): ≤ 3 × 10^–5 s^–1; Ki (LiTryR; [8]): 7.8 ± 1.7 µM; α (initial EI complex) (LiTryR; two-step mechanism): 0.8 ± 0.4
NCCCCc1cn(-c2ccc(-c3nc(CCc4ccc(-c5ccccc5)cc4)cs3)c(OCCN3CCNC3=O)c2)nn1.O=C(O)C(F)(F)F [12c, 1-(2-(2-(4-(2-([1,1′-Biphenyl]-4-yl)ethyl)thiazol-2-yl)-5-(4-(4-ammoniumbutyl)-1H-1,2,3-triazol-1-yl)phenoxy)ethyl)imidazolidin-2-one 2,2,2-Trifluoroacetate]	43.1 ± 2.6	3.7	11.6 ± 0.8	8.8	4.9 ± 0.4	slow-binding inhibitors	EC50 [2, 6]: < 10 µM
